The test system of experiment [1] is Staphylococcus aureaus CHP. In words: mice infected intraperitoneally, single dose six hours post-infection, deaths and CD50. It counts as in vivo. The note with it: for ED50: Staphylococcus. As to the method: Mice are infected intraperitoneally with a standardized suspension of Staphylococcus aureaus CHP in 5% gastric mucin. The animals are randomized. Six hours post-infection a single dose of the compound indicated is administered by the route indicated. The animals are observed for a 30 day period and deaths are recorded daily. The CD50 for 14 and 30 days as determined by the method of Reed and Muench, American Journal of Hygiene (1938), for each compound is tabulated:
7-[2-(5-Acetylamino-1,3,4-thiadiazol-2-ylthio)acetamido]cephalosporanic acid is tested as described in Example 5.

Experiment [2] has as its system Enterobacter agglomerans 27155. In words: agar serial dilution MIC. It counts as cell-based. The note with it: Pantoea agglomerans, 27155; Example 4; read-out: MIC. On the procedure:
(§1) A stock solution of 7-[2-(4,5-dihydro-5-imino-1,3,4-thiadiazol-2-ylthio)acetamido]cephalosporanic acid as the hydrobromic acid addition salt containing 2,500 μg. of the active moiety is prepared in phosphate buffer. Two fold serial dilutions are prepared with phosphate buffer. One milliliter (ml.) quantities of each dilution are incorporated in 9 ml. seen agar in sterile Petri plates. The hardened surface is innoculated with test organisms using a Steers replicating device. The plates are incubated at 35° C. for 18 hours.
(§2) The test organisms are Bacillus subtilis (BA SU) 6633; Staphylococcus aureus (ST AU) 6538P, Smith CHP, and 3-180; Mycobacterium smegmatis (MY SM) 10143; Neisseria catarrhalis (NE CA) 8193; Pseudonomas aeruginosa (PS AE) 10145; Escherichia coli (ES CO) 9637, and 920; Escherichia intermedia (ES IN) 65-1; Salmonella paratyphi (SA PA) 11737; Enterobacter aerogenes (EN AE) 13048; Klebsiella pneumoniae (KL PN) 10031; Bordetella bronchiseptica (BO BR) 4617; Proteus vulgaris (PR VU) 6896; and Herellea species (HE SP) 9955. These organisms are grown for 18 hours in Brain heart infusion at 35° C. Prior to use the cultures are diluted 10 fold with the infusion, except in the case of Mycobacterium. The latter is grown in Emerson's broth for 5 days at 28° C. in shaker flasks and used undiluted.
(§3) Following the procedure of Example 2 but substituting the organisms listed below the same preparation of 7-[2-(4,5-dihydro-5-imino-1,3,4-thiadiazol-2-ylthio)acetamido]cephalosporanic acid (Compound A) as used in Example 3, a third sample of the same compound, prepared as described in Example 1 (Compound B) and 7-[2-(5-acetamido-1,3,4-thiadiazol-2-ylthio)acetamido]cephalosporanic acid (Compound C) are tested to obtain the results shown: […]

Experiment [3] concerns Salmonella cholera-suis 13312. In words: agar serial dilution MIC. It is filed as cell-based. On the procedure: as §1, §2, §3
The next experiment relates to Proteus mirabilis 9921. In words: agar serial dilution MIC. It is filed as cell-based. The note with it: Example 4. On the procedure: as §1, §2, §3
For the next experiment, the system named is Klebsiella ozaenae 11296. In words: agar serial dilution MIC. It is filed as cell-based. The conditions noted are these: Example 4, read-out: MIC. On the procedure:
as §1, §2, §3

For another experiment, the system named is Shigella sonnei 11060. The experiment can be described thus: agar serial dilution MIC. It counts as cell-based. The conditions noted are these: Example 4. On the procedure:
as §1, §2, §3

Another experiment deals with Shigella boydii 9207. The experiment can be described thus: agar serial dilution MIC. It is filed as cell-based. The note with it: Example 4. On the procedure: as §1, §2, §3
Experiment [4] relates to Enterobacter cloacae 13047. The experiment can be described thus: agar serial dilution MIC. It is filed as cell-based. The note with it: Example 4. As to the method:
as §1, §2, §3

Experiment [5] concerns Citrobacter freundii 8090. The experiment can be described thus: agar serial dilution MIC. It counts as cell-based. The note with it: Example 4. On the procedure: as §1, §2, §3
For another experiment, the system named is Shigella flexneri 12025. In words: agar serial dilution MIC. It is filed as cell-based. The note with it: Shigella flexneri, 12025, Example 4; read-out: MIC. On the procedure:
as §1, §2, §3

Experiment [6] deals with Enterobacter havniae 11604. The experiment can be described thus: agar serial dilution MIC. It is filed as cell-based. The note with it: Example 4. On the procedure:
as §1, §2, §3

The next experiment deals with Salmonella typhi 19430. In words: agar serial dilution MIC. It is filed as cell-based. The conditions noted are these: Salmonella enterica. As to the method:
as §1, §2, §3

Experiment [7] deals with Citrobacter diversus 27156. The experiment can be described thus: agar serial dilution MIC. It counts as cell-based. The note with it: Citrobacter koseri, Example 4. On the procedure: as §1, §2, §3
Another experiment deals with Arizona arizonae 13314. In words: agar serial dilution MIC. It is filed as cell-based. The note with it: Salmonella enterica, 13314, Example 4. As to the method: as §1, §2, §3
Experiment [8] relates to Salmonella enteritidis 13076. In words: agar serial dilution MIC. It counts as cell-based. The note with it: Salmonella enterica, Example 4. On the procedure: as §1, §2, §3
Experiment [9] relates to Serratia marcescens 13880. In words: agar serial dilution MIC. It counts as cell-based. The conditions noted are these: Example 4. On the procedure: as §1, §2, §3
For the next experiment, the system named is Edwardsiella tarda 15947. In words: agar serial dilution MIC. The note with it: Edwardsiella tarda, 15947; Example 4; read-out: MIC. It counts as cell-based. On the procedure:
as §1, §2, §3

For experiment [10], the system named is Klebsiella rhinoscleromatis 13884. In words: agar serial dilution MIC. It is filed as cell-based. The conditions noted are these: Klebsiella pneumoniae, Example 4. On the procedure:
as §1, §2, §3

In a further experiment the test system is Serratia rubidae 27593. The experiment can be described thus: agar serial dilution MIC. It counts as cell-based. The note with it: Example 4. On the procedure:
as §1, §2, §3

The test system of experiment [11] is Serratia liquefaciens 27592. The experiment can be described thus: agar serial dilution MIC. The note with it: Example 4. It counts as cell-based. On the procedure: as §1, §2, §3
Experiment [12] relates to Klebsiella pneumoniae 13883. In words: agar serial dilution MIC. It counts as cell-based. The note with it: Klebsiella pneumoniae, 13883, Example 4. On the procedure:
as §1, §2, §3

Experiment [13] deals with Acinetobacter calcoaceticus 9957. In words: agar serial dilution MIC. It is filed as cell-based. The conditions noted are these: Example 4, read-out: MIC. As to the method:
as §1, §2, §3

For experiment [14], the system named is Providencia alcalifaciens 9886. The experiment can be described thus: agar serial dilution MIC. It counts as cell-based. The note with it: Example 4. On the procedure:
as §1, §2, §3

Experiment [15] has as its system Providencia stuartii 25825. The experiment can be described thus: agar serial dilution MIC. It is filed as cell-based. The conditions noted are these: Example 4. On the procedure: as §1, §2, §3
The mark [16] stands for this setting: sc, 336 h, subcutaneous, 14 Days, single dose, mice.
Setting [17] is: sc, 720 h, subcutaneous, 30 Days, single dose, mice.
Setting [18] is: subcutaneous, 50 mg/kg., 14 Days.
Where [19] appears, read: subcutaneous, 50 mg/kg., 30 Days.
[20] abbreviates: subcutaneous, 100 mg/kg., 14 Days.
Setting [21] is: subcutaneous, 100 mg/kg., 30 Days.
Setting [22] is: subcutaneous, 200 mg/kg., 14 Days.
Where [23] appears, read: subcutaneous, 200 mg/kg., 30 Days.
Where [24] appears, read: subcutaneous, 400 mg/kg., 14 Days.
The mark [25] stands for this setting: subcutaneous, 400 mg/kg., 30 Days.
The mark [26] stands for this setting: subcutaneous, 14 Days, single dose, mice, 20160 min.

Values after ≈ are worked out from the molar mass of the structure shown. Values joined by “and” are separate entries in the source; they are usually repeats but may differ in a detail not shown here. Identical values can stand only once.

A word on the ED50: it is the midpoint of the dose-response relation. Low readings indicate an effect at a small dose, high ones a need for a large dose. As usually defined, the MIC is the lowest concentration that inhibits growth of the organism.

In the case of `Cc1nnc(SCC2=C(C(=O)O)N3C(=O)[C@@H](NC(=O)Cn4cnnn4)[C@H]3SC2)s1` [Cefazolin], the ED50 was 6.41 mg/kg in experiment [1] (setting [16]) and 7.2 mg/kg in experiment [1] (setting [17]). Besides, the “Deaths / Total No. Treated” value in experiment [1] (setting [18]) is 10/10; in experiment [1] (setting [19]), 10/10; in experiment [1] (setting [20]) it was 10/10 and 8/10; in experiment [1] (setting [21]) it was 10/10; in [1] (setting [22]), 10/10; in experiment [1] (setting [23]) it was 10/10. Further, the “Deaths / Total No. Treated” value in experiment [1] (setting [24]) was 4/10; in experiment [1] (setting [25]) it was 5/10. In addition, the CD50 in [1] (setting [26]) was found to be 5.82 mg/kg.

For `CCOc1ccc2ccccc2c1C(=O)N[C@@H]1C(=O)N2[C@@H]1SC(C)(C)[C@@H]2C(=O)O` [Nafcillin], the ED50 amounted to 3.12 mg/kg in experiment [1] (setting [16]) and 3.9 mg/kg in experiment [1] (setting [17]). The “Deaths / Total No. Treated” value in [1] (setting [18]) was 9/10 and 10/10; in experiment [1] (setting [19]) it was 9/10 and 10/10; in experiment [1] (setting [20]) it was 9/10 and 7/10; in experiment [1] (setting [21]), 10/10 and 7/10; in experiment [1] (setting [22]) it was 3/10 and 4/10; in [1] (setting [23]), 4/10. Moreover, the “Deaths / Total No. Treated” value in [1] (setting [24]) was 3/10 and 4/10; in [1] (setting [25]), 4/10. Besides, the CD50 stood at 3.41 mg/kg in experiment [1] (setting [26]) and 3.41 mg/kg in experiment [1] (subcutaneous, 30 Days, single dose, mice, 43200 min).

For the compound `CC(=O)Nc1nnc(SCC(=O)NC2C(=O)N3C(C(=O)O)=C(COC(C)=O)CSC23)s1` (stereo not drawn) [Compound C, 7-[2-(5-acetamido-1,3,4-thiadiazol-2-ylthio)acetamido]cephalosporanic acid, reference compound], in experiment [1] (po, Example 6, mice), the ED50 was > 7.2 mg/kg. In [1] (oral, Example 6, mice), the “oral activity against the test organism” value is “lack of significant oral activity”. Besides, the MIC in [2] is 7.81 µg/mL (≈ 16 µM); in [3] it was 15.6 µg/mL (≈ 32 µM); against Proteus mirabilis 9921, 15.6 µg/mL (≈ 32 µM); in the experiment with Klebsiella ozaenae 11296, 7.81 µg/mL (≈ 16 µM); against Shigella sonnei 11060, 62.5 µg/mL (≈ 128 µM); against Shigella boydii 9207, 31.3 µg/mL (≈ 64.2 µM). Further, the MIC in [4] was > 250 µg/mL; in [5], > 250 µg/mL; in the experiment on Shigella flexneri 12025, 15.6 µg/mL (≈ 32 µM); in experiment [6] it was 250 µg/mL (≈ 513 µM); in the experiment on Salmonella typhi 19430 it was 15.6 µg/mL (≈ 32 µM); in experiment [7], 15.6 µg/mL (≈ 32 µM). Besides, the MIC is 31.3 µg/mL (≈ 64.2 µM) in the experiment on Arizona arizonae 13314; 31.3 µg/mL (≈ 64.2 µM) in [8]; > 250 µg/mL in experiment [9]; 7.81 µg/mL (≈ 16 µM) in the experiment on Edwardsiella tarda 15947; > 250 µg/mL in experiment [10]; > 250 µg/mL in the experiment with Serratia rubidae 27593. Further, the MIC in [11] was > 250 µg/mL; in experiment [12] it was 62.5 µg/mL (≈ 128 µM); in experiment [13], 250 µg/mL (≈ 513 µM); in experiment [14] it was > 250 µg/mL; in experiment [15], 250 µg/mL (≈ 513 µM).

The values are drawn from patent US3971779A, “7-[2-(5-Amino-1,3,4-thiadiazol-2-ylthio)acetamido]cephalosporins” (American Home Products Corporation, priority 1975, dated 1976).
